Test results as given in patent publication US12458597B2, “Carotenoid compositions and uses thereof” (L.E.A.F. HOLDINGS GROUP LLC, priority 2018, dated 2025).

Key:
[1] = Maximum solubility of trans-crocetin sodium in aqueous media; assay type: physicochemical; conditions: 5% dextrose (aqueous medium), saline or isotonic; in 5% dextrose
Protocol: The ethanolic lipid solution containing HSPC, cholesterol, PEG-DSPE, with/without PGPC was added into the aqueous solution using a pipet. During this step the solution was well stirred using a magnetic stirrer. The mixing was performed at an elevated temperature (63° C.-72° C.) to ensure that the lipids are in the liquid crystalline state (as opposed to the gel state they attain at temperatures below the lipid transition temperature (Tm=51° C.-54° C.). As a result, the lipids are hydrated and formed multiple bilayer (multilamellar) vesicles (MLV) containing trans-crocetin sodium in the aqueous core. The MLVs were then downsized by extrusion as described previously.
The ethanolic lipid solution containing HSPC, cholesterol, PEG-DSPE, with/without PGPC and the trans-crocetin sodium aqueous solution were separately transferred to syringes. Two solutions were injected into a microfluidic channel and mixed while flowing through it with Precision NanoSystems' NanoAssemblr® device. The mixing was performed at an elevated temperature (63° C.-72° C.) to ensure that the lipids were in a liquid crystalline state (as opposed to the gel state that they attain at temperatures below the lipid transition temperature (Tm=51° C.-54° C.). The liposome size can be controlled by varying the ratio between lipid solution and aqueous solution, as well as the mixing flow rate.

[2] = Liposomal CTC and MTC PK in mice, plasma STC by HPLC; assay type: in vivo; conditions: mouse, single dose, slow intravenous bolus
Protocol: Sample mixtures were well mixed by vortexing. […] Samples were vortexed and then centrifuged at 10000 RPM for 10 min at room temperature. 200 μL of supernatant was removed from each sample without disturbing pellet and analyzed by HPLC. If the amount of plasma permitted, this analysis was duplicated.
The concentration of STC in the plasma samples was quantified by standard curve constructed by analyzing plasma samples containing known amount of STC. PK profiles were analyzed.

mouse CLP sepsis model = experiment: CLP sepsis survival Study 1 (TP-936); assay type: in vivo, C57BL/6 mice; conditions: CLP mice treated with saline and imipenem (control group); over 5 days
Source text: Male and/or female C57BL/6 mice ordered from Envigo Laboratories or the Jackson Lab (Bar Harbor, Maine) were acclimated to housing conditions and handled in accordance with Animal Use Protocol (AUP) number TP-05. The animals were acclimated for approximately 1 week prior to study start. Only animals deemed healthy were included in this study. Animals were fed irradiated Teklad Global Rodent Diet 2918 and water ad libitum. Mice were group housed 5/cage in static cages with irradiated Teklad ⅛″ corn cob bedding 7902 inside bioBubble® Clean Rooms that provide H.E.P. A filtered air into the bubble environment at 100 complete air changes per hour. The environment was controlled to a temperature range of 74°±5° F. and a humidity range of 30-70%. Treatment groups were identified by cage card. Individual mice were identified by indelible marker on the base of the tail. All procedures carried out in this experiment were conducted in compliance with the laws, regulations, and guidelines of the National Institutes of Health and with the approval of the TransPharm Animal Care and Use Committee.
On Day −1, male and/or female mice were anesthetized through use of isoflurane and brought to a surgical plane. […]
Animals were monitored continually post-surgery, at least once every 2-3 minutes for approximately 30 minutes, until the animals had recovered and were able to move about on their own. […]

[3] = Balb/c, iv, plasma over 24 hour

With `CC(/C=C/C=C(\C)C(=O)O)=C\C=C\C=C(C)\C=C\C=C(/C)C(=O)O` [STC free drug, sodium trans-crocetinate] the solubility [1] was 700 µg/mL, the AUC [2, 3] was 210 µg·h/mL and the half-life [2, 3] was 21 min. For the same compound, the Cmax ([2]; Balb/c mice) was 360 µg/mL.
Work on `C[C@@H](O)[C@H]1C(=O)N2C(C(=O)O)=C(SCCN=CN)C[C@H]12` [imipenem] yielded a mortality (mouse CLP sepsis model) of 50%.
